The IC50 is the concentration at which inhibition is half-maximal. One may read the EC50 as the concentration that produces a half-maximal response.

Test [1] addresses HCV NS3/4A protease genotype 1b (Hepatitis C virus genotype 1b, UniProt P26663). Put plainly: HCV NS3/4A protease time-resolved fluorescence (TRF) assay, Ki against genotype 1b. The format is biochemical. Conditions: IC50 [gt-1b] (nM), NS3/4A genotype 1b, enzyme 0.2 nM. In short, it runs like this:
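Enzyme was pre-incubated 30 min with inhibitor in HEPES pH 7.5 buffer (150 mM NaCl, 15% glycerol, 10 mM DTT). Reaction ran 2.5 h at room temperature with 25 nM europium TRF peptide substrate, read at ex 340/em 615 nm. Enzyme levels: 0.2 nM (1b), 0.4 nM (A156T), 0.025 nM (3a). Ki came from four-parameter IC50 via IC50=Ki(1+[S]/KM).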

The subject of another test is HCV genotype 1b replicon. Put plainly: HCV replicon assay, genotype 1b replicon EC50. The format is cell-based, Hepatitis C virus. Conditions: genotype 1b replicon, read-out: EC50 [gt-1b]. A digest of the protocol: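 Stable neomycin phosphotransferase-encoding replicon cell lines, kept under G418 selection beforehand, were plated with a compound dilution series without G418 and incubated 24-48 hours. Replicon RNA was then quantified, or luciferase activity read. EC50 was calculated as percent of DMSO control by four-parameter fit.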
A general note: Replicon systems follow genome replication, usually without infectious particles.

Structures are written as SMILES. Read-outs that look alike come from different tables or passages of the source.

Turning to `Cc1nc2ccc(Cl)cc2c2c1O[C@]1(CC2)C[C@H]2C(=O)N[C@]3(C(=O)NS(=O)(=O)C4(C)CC4)C[C@H]3/C=C\CCCCC[C@H](NC(=O)OC3CCCCC3)C(=O)N2C1` [Example 190, cyclohexyl [(2R,6S,12Z,13aS,14aR,16aS)-9′-chloro-5′-methyl-14a-{[(1-methylcyclopropyl)sulfonyl]carbamoyl}-5,16-dioxo-1,1′,2′,5,6,7,8,9,10,11,13a,14,14a,15,16,16a-hexadecahydrospiro[cyclopropa[e]pyrrolo[1,2-a][1,4]diazacyclopentadecine-2,3′-pyrano[2,3-c]quinolin]-6-yl]carbamate], the IC50 in test [1] (K+ salt) worked out at 0.009 nM. The EC50 in the test on HCV genotype 1b replicon (Hepatitis C virus, K+ salt) was found to be 13.2 nM.
Regarding `CC1(S(=O)(=O)NC(=O)[C@@]23C[C@H]2/C=C\CCCCC[C@H](NC(=O)OC2(C4CC4)CC2)C(=O)N2C[C@@]4(CCc5c(c(C6CC6)nc6c(F)cccc56)O4)C[C@H]2C(=O)N3)CC1` [Example 191, 1,1′-bi(cyclopropyl)-1-yl [(2R,6S,12Z,13aS,14aR,16aS)-5′-cyclopropyl-7′-fluoro-14a-{[(1-methylcyclopropyl)sulfonyl]carbamoyl}-5,16-dioxo-1,1′,2′,5,6,7,8,9,10,11,13a,14,14a,15,16,16a-hexadecahydrospiro[cyclopropa[e]pyrrolo[1,2-a][1,4]diazacyclopentadecine-2,3′-pyrano[2,3-c]quinolin]-6-yl]carbamate], the IC50 in test [1] amounted to 0.012 nM. For the same molecule, in the test with HCV genotype 1b replicon (Hepatitis C virus), the EC50 came to 3.59 nM.
`CC(C)(C)COC(=O)N[C@H]1CCCCC/C=C\[C@@H]2C[C@@]2(C(=O)NS(=O)(=O)C2(C)CC2)NC(=O)[C@@H]2C[C@]3(CCc4c(c(C5CC5)nc5c(F)cccc45)O3)CN2C1=O` [Example 192, 2,2-dimethylpropyl [(2R,6S,12Z,13aS,14aR,16aS)-5′-cyclopropyl-7′-fluoro-14a-{[(1-methylcyclopropyl)sulfonyl]carbamoyl}-5,16-dioxo-1,1′,2′,5,6,7,8,9,10,11,13a,14,14a,15,16,16a-hexadecahydrospiro[cyclopropa[e]pyrrolo[1,2-a][1,4]diazacyclopentadecine-2,3′-pyrano[2,3-c]quinolin]-6-yl]carbamate]: in test [1], the IC50 came to 0.019 nM. Besides, the EC50 in the test on HCV genotype 1b replicon (Hepatitis C virus) was determined as 9.61 nM.
For `Cc1nc2cc(F)c(F)cc2c2c1O[C@]1(CC2)C[C@H]2C(=O)N[C@]3(C(=O)NS(=O)(=O)C4(C)CC4)C[C@H]3/C=C\CCCCC[C@H](NC(=O)OC3CCCC3)C(=O)N2C1` [Example 193, cyclopentyl [(2R,6S,12Z,13aS,14aR,16aS)-8′,9′-difluoro-5′-methyl-14a-{[(1-methylcyclopropyl)sulfonyl]carbamoyl}-5,16-dioxo-1,1′,2′,5,6,7,8,9,10,11,13a,14,14a,15,16,16a-hexadecahydrospiro[cyclopropa[e]pyrrolo[1,2-a][1,4]diazacyclopentadecine-2,3′-pyrano[2,3-c]quinolin]-6-yl]carbamate], the IC50 in test [1] (K+ salt) is 0.007 nM. The EC50 in the test with HCV genotype 1b replicon (Hepatitis C virus, K+ salt) was 31.1 nM.
Turning to `Cc1nc2ccccc2c2c1O[C@]1(CC2)C[C@H]2C(=O)N[C@]3(C(=O)NS(=O)(=O)C4(C)CC4)C[C@H]3/C=C\CCCCC[C@H](NC(=O)OC3CCC(F)(F)CC3)C(=O)N2C1` [Example 196, 4,4-difluorocyclohexyl [(2R,6S,12Z,13aS,14aR,16aS)-5′-methyl-14a-{[(1-methylcyclopropyl)sulfonyl]carbamoyl}-5,16-dioxo-1,1′,2′,5,6,7,8,9,10,11,13a,14,14a,15,16,16a-hexadecahydrospiro[cyclopropa[e]pyrrolo[1,2-a][1,4]diazacyclopentadecine-2,3′-pyrano[2,3-c]quinolin]-6-yl]carbamate], the IC50 in test [1] stood at 0.003 nM. Moreover, in the test with HCV genotype 1b replicon (Hepatitis C virus), the EC50 is 5.53 nM.
In test [1], `Cc1nc2ccccc2c2c1O[C@]1(CC2)C[C@H]2C(=O)N[C@]3(C(=O)NS(=O)(=O)C4(C)CC4)C[C@H]3/C=C\CCCCC[C@H](NC(=O)OC(C)C(F)(F)F)C(=O)N2C1` (stereo partly drawn) [Example 197, 1,1,1-trifluoropropan-2-yl [(2R,6S,12Z,13aS,14aR,16aS)-5′-methyl-14a-{[(1-methylcyclopropyl)sulfonyl]carbamoyl}-5,16-dioxo-1,1′,2′,5,6,7,8,9,10,11,13a,14,14a,15,16,16a-hexadecahydrospiro[cyclopropa[e]pyrrolo[1,2-a][1,4]diazacyclopentadecine-2,3′-pyrano[2,3-c]quinolin]-6-yl]carbamate] displayed an IC50 of 0.004 nM. The EC50 with HCV genotype 1b replicon turned out to be 9.87 nM.
On to `COc1ccc2nc(C)c3c(c2c1)CC[C@]1(C[C@H]2C(=O)N[C@]4(C(=O)NS(=O)(=O)C5(C)CC5)C[C@H]4/C=C\CCCCC[C@H](NC(=O)OC4CCCC4C)C(=O)N2C1)O3` (stereo partly drawn) [Example 200, 2-methylcyclopentyl [(2R,6S,12Z,13aS,14aR,16aS)-9′-methoxy-5′-methyl-14a-{[(1-methylcyclopropyl)sulfonyl]carbamoyl}-5,16-dioxo-1,1′,2′,5,6,7,8,9,10,11,13a,14,14a,15,16,16a-hexadecahydrospiro[cyclopropa[e]pyrrolo[1,2-a][1,4]diazacyclopentadecine-2,3′-pyrano[2,3-c]quinolin]-6-yl]carbamate], for which, in test [1] (K+ salt), the IC50 is 0.005 nM. In addition, in the test on HCV genotype 1b replicon (Hepatitis C virus, K+ salt), the EC50 is 0.369 nM.
In the case of `Cc1nc2cc(F)c(F)cc2c2c1O[C@]1(CC2)C[C@H]2C(=O)N[C@]3(C(=O)NS(=O)(=O)C4(C)CC4)C[C@H]3/C=C\CCCCC[C@H](NC(=O)OCC(C)C)C(=O)N2C1` [Example 201, 2-methylpropyl [(2R,6S,12Z,13aS,14aR,16aS)-8′,9′-difluoro-5′-methyl-14a-{[(1-methylcyclopropyl)sulfonyl]carbamoyl}-5,16-dioxo-1,1′,2′,5,6,7,8,9,10,11,13a,14,14a,15,16,16a-hexadecahydrospiro[cyclopropa[e]pyrrolo[1,2-a][1,4]diazacyclopentadecine-2,3′-pyrano[2,3-c]quinolin]-6-yl]carbamate], the IC50 in test [1] (K+ salt) is 0.007 nM. For the same molecule, in the test with HCV genotype 1b replicon (Hepatitis C virus, K+ salt), the EC50 was determined as 0.91 nM.
For the molecule `Cc1nc2cc(F)c(F)cc2c2c1O[C@]1(CC2)C[C@H]2C(=O)N[C@]3(C(=O)NS(=O)(=O)C4(C)CC4)C[C@H]3/C=C\CCCCC[C@H](NC(=O)OCC(C)(C)C)C(=O)N2C1` [Example 202, 2,2-dimethylpropyl [(2R,6S,12Z,13aS,14aR,16aS)-8′,9′-difluoro-5′-methyl-14a-{[(1-methylcyclopropyl)sulfonyl]carbamoyl}-5,16-dioxo-1,1′,2′,5,6,7,8,9,10,11,13a,14,14a,15,16,16a-hexadecahydrospiro[cyclopropa[e]pyrrolo[1,2-a][1,4]diazacyclopentadecine-2,3′-pyrano[2,3-c]quinolin]-6-yl]carbamate], in test [1] (K+ salt), the IC50 worked out at 0.009 nM. The EC50 in the test with HCV genotype 1b replicon (Hepatitis C virus, K+ salt) turned out to be 1.43 nM.
With `COc1ccc2nc(C)c3c(c2c1)CC[C@]1(C[C@H]2C(=O)N[C@]4(C(=O)NS(=O)(=O)C5(C)CC5)C[C@H]4/C=C\CCCCC[C@H](NC(=O)OCC(C)(C)C)C(=O)N2C1)O3` [Example 205, 2,2-dimethylpropyl [(2R,6S,12Z,13aS,14aR,16aS)-9′-methoxy-5′-methyl-14a-{[(1-methylcyclopropyl)sulfonyl]carbamoyl}-5,16-dioxo-1,1′,2′,5,6,7,8,9,10,11,13a,14,14a,15,16,16a-hexadecahydrospiro[cyclopropa[e]pyrrolo[1,2-a][1,4]diazacyclopentadecine-2,3′-pyrano[2,3-c]quinolin]-6-yl]carbamate], in test [1] (K+ salt), the half-inhibitory concentration (IC50) amounted to 0.005 nM. For the same molecule, the EC50 with HCV genotype 1b replicon (Hepatitis C virus, K+ salt) was found to be 0.647 nM.
For the molecule `COc1ccc2nc(C)c3c(c2c1)CC[C@]1(C[C@H]2C(=O)N[C@]4(C(=O)NS(=O)(=O)C5(C)CC5)C[C@H]4/C=C\CCCCC[C@H](NC(=O)OC4CCCCC4)C(=O)N2C1)O3` [Example 206, cyclohexyl [(2R,6S,12Z,13aS,14aR,16aS)-9′-methoxy-5′-methyl-14a-{[(1-methylcyclopropyl)sulfonyl]carbamoyl}-5,16-dioxo-1,1′,2′,5,6,7,8,9,10,11,13a,14,14a,15,16,16a-hexadecahydrospiro[cyclopropa[e]pyrrolo[1,2-a][1,4]diazacyclopentadecine-2,3′-pyrano[2,3-c]quinolin]-6-yl]carbamate], the IC50 in test [1] (K+ salt) was 0.005 nM. The EC50 with HCV genotype 1b replicon (Hepatitis C virus, K+ salt) was 0.808 nM.
`COCC(C)(C)OC(=O)N[C@H]1CCCCC/C=C\[C@@H]2C[C@@]2(C(=O)NS(=O)(=O)C2(C)CC2)NC(=O)[C@@H]2C[C@]3(CCc4c(c(C)nc5ccc(OC(F)(F)F)cc45)O3)CN2C1=O` [Example 207, 1-methoxy-2-methylpropan-2-yl [(2R,6S,12Z,13aS,14aR,16aS)-5′-methyl-14a-{[(1-methylcyclopropyl)sulfonyl]carbamoyl}-5,16-dioxo-9′-(trifluoromethoxy)-1,1′,2′,5,6,7,8,9,10,11,13a,14,14a,15,16,16a-hexadecahydrospiro[cyclopropa[e]pyrrolo[1,2-a][1,4]diazacyclopentadecine-2,3′-pyrano[2,3-c]quinolin]-6-yl]carbamate] showed an IC50 in test [1] of 0.007 nM. Besides, in the test on HCV genotype 1b replicon (Hepatitis C virus), the EC50 was found to be 1.08 nM.
For `COCCC(C)(C)OC(=O)N[C@H]1CCCCC/C=C\[C@@H]2C[C@@]2(C(=O)NS(=O)(=O)C2(C)CC2)NC(=O)[C@@H]2C[C@]3(CCc4c(c(C)nc5ccc(OC(F)(F)F)cc45)O3)CN2C1=O` [Example 208, 4-methoxy-2-methylbutan-2-yl [(2R,6S,12Z,13aS,14aR,16aS)-5′-methyl-14a-{[(1-methylcyclopropyl)sulfonyl]carbamoyl}-5,16-dioxo-9′-(trifluoromethoxy)-1,1′,2′,5,6,7,8,9,10,11,13a,14,14a,15,16,16a-hexadecahydrospiro[cyclopropa[e]pyrrolo[1,2-a][1,4]diazacyclopentadecine-2,3′-pyrano[2,3-c]quinolin]-6-yl]carbamate], in that order: 0.009 nM and 2.05 nM.

(Values after US8987195B2 (priority 2012, dated 2015).)
